Source: patent US9255100B2 (BAYER INTELLECTUAL PROPERTY GMBH, priority 2010, dated 2016)

These compounds were tested against T1, N-terminally GST-tagged human full length recombinant Mps-1 kinase (Homo sapiens, UniProt P33981) (assay: Mps-1 kinase assay (TR-FRET)). Conditions: Mps1 IC50 [nM], 10 μM ATP, 1 μM peptide substrate, 60 min at 22° C.
T1 construct: N-terminally GST-tagged human full length recombinant Mps-1 kinase; purchased Invitrogen, Karslruhe, Germany PV4071
T1 sequence (P33981 1-857): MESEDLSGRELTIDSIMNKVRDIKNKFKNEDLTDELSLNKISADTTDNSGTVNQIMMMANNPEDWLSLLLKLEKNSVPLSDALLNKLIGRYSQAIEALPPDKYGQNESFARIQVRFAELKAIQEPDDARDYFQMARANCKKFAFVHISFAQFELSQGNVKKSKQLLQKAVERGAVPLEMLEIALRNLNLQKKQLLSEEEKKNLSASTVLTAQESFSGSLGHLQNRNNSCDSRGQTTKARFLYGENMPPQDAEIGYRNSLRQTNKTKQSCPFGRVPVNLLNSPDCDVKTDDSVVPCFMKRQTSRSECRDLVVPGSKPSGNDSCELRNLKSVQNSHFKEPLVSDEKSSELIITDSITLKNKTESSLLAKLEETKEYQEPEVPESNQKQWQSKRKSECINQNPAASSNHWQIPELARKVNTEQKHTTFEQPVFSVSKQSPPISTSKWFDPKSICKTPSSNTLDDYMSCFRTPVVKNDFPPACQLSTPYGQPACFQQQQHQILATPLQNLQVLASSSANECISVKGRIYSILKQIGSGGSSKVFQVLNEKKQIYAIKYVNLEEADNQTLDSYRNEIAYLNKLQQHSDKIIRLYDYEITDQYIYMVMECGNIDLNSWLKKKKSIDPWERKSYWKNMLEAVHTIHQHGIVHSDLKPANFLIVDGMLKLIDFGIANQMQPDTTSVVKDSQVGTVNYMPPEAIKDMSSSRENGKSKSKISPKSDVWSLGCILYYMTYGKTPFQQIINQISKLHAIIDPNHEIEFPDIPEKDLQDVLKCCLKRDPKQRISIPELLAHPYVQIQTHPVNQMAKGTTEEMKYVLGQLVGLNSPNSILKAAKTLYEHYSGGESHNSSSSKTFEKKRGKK
Format: biochemical
How it was run: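 GST-Mps-1 (full length, N-term tag) ~1 nM final, linear-range adjusted per lot; biotinylated peptide substrate. Detection: Eu-anti-pSer/Thr donor → SA-XLent acceptor TR-FRET, 1 h, 22° C. Inhibition of kinase activity.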

Row | SMILES | IC50 [nM]
1 | Cc1cc(-c2cnc3c(NCC(C)(C)O)cc(Oc4ccc5ncccc5c4)nn23)ccc1C(=O)NC1CC1 [Example 168, N-cyclopropyl-4-{8-[(2-hydroxy-2-methylpropyl)amino]-6-(quinolin-6-yloxy)imidazo[1,2-b]pyridazin-3-yl}-2-methylbenzamide] | 0.3
2 | Cc1cc(-c2cnc3c(NCCC(F)(F)F)cc(Oc4ccc5ncccc5c4)nn23)ccc1C(=O)NC1CC1 [Example 169, N-cyclopropyl-2-methyl-4-{6-(quinolin-6-yloxy)-8-[(3,3,3-trifluoro-propyl)amino]imidazo[1,2-b]pyridazin-3-yl}benzamide] | 0.1
3 | Cc1cc(-c2cnc3c(NCCC(F)(F)F)cc(Oc4cccc5ncccc45)nn23)ccc1C(=O)NC1CC1 [Example 170, N-cyclopropyl-2-methyl-4-{6-(quinolin-5-yloxy)-8-[(3,3,3-trifluoro-propyl)amino]imidazo[1,2-b]pyridazin-3-yl}benzamide] | 0.7
4 | Cc1cc(-c2cnc3c(NCCC(F)(F)F)cc(SC4CCCCC4)nn23)ccc1C(=O)NC1CC1 [Example 171, 4-{6-(cyclohexylsulfanyl)-8-[(3,3,3-trifluoropropyl)amino]imidazo [1,2-b]pyridazin-3-yl}-N-cyclopropyl-2-methylbenzamide] | 0.8
5 | Cc1cc(-c2cnc3c(NCC(C)(C)O)cc(SC4CCCCC4)nn23)ccc1C(=O)NC1CC1 [Example 172, 4-{6-(cyclohexylsulfanyl)-8-[(2-hydroxy-2-methylpropyl)amino]imidazo[1,2-b]pyridazin-3-yl}-N-cyclopropyl-2-methylbenzamide] | 0.8
6 | Cc1cc(-c2cnc3c(NCC(C)(C)O)cc(Oc4cccnc4)nn23)ccc1C(=O)NC1CC1 [Example 173, N-cyclopropyl-4-{8-[(2-hydroxy-2-methylpropyl)amino]-6-(pyridin-3-yloxy)imidazo[1,2-b]pyridazin-3-yl}-2-methylbenzamide] | 0.4
7 | Cc1cc(-c2cnc3c(NCCC(F)(F)F)cc(Oc4cccnc4)nn23)ccc1C(=O)NC1CC1 [Example 174, N-cyclopropyl-2-methyl-4-{6-(pyridin-3-yloxy)-8-[(3,3,3-trifluoro-propyl)amino]imidazo[1,2-b]pyridazin-3-yl}benzamide] | < 0.1
8 | CC(C)CNc1cc(Cl)nn2c(-c3ccc(C(N)=O)cc3)cnc12 [Example 176, 4-{6-Chloro-8-[(2-methylpropyl)amino]imidazo[1,2-b]pyridazin-3-yl}benzamide] | 465
9 | CNC(=O)c1ccc(-c2cnc3c(NCC(C)C)cc(Cl)nn23)cc1 [Example 178, 4-{6-Chloro-8-[(2-methylpropyl)amino]imidazo[1,2-b]pyridazin-3-yl}-N-methylbenzamide] | 172
10 | CC(C)CNc1cc(Cl)nn2c(-c3ccc(C(=O)NC(C)C)cc3)cnc12 [Example 179, 4-{6-Chloro-8-[(2-methylpropyl)amino]imidazo[1,2-b]pyridazin-3-yl}-N-(propan-2-yl)benzamide] | 601
11 | CNC(=O)c1ccc(-c2cnc3c(NCC(C)C)cc(Cl)nn23)cc1Cl [Example 180, 2-Chloro-4-{6-chloro-8-[(2-methylpropyl)amino]imidazo[1,2-b]pyridazin-3-yl}-N-methylbenzamide] | 327
12 | CC(C)CNc1cc(Cl)nn2c(-c3ccc(C(=O)NC4CC4)c(Cl)c3)cnc12 [Example 181, 2-Chloro-4-{6-chloro-8-[(2-methylpropyl)amino]imidazo[1,2-b]pyridazin-3-yl}-N-cyclopropyl-benzamide] | 39.9
13 | CC(C)CNc1cc(Cl)nn2c(-c3ccc4c(NC5CC5)noc4c3)cnc12 [Example 183, 6-Chloro-3-[3-(cyclopropylamino)-1,2-benzoxazol-6-yl]-N-(2-methylpropyl)imidazo[1,2-b] pyridazin-8-amine] | 290
14 | CC(C)CNc1cc(Cl)nn2c(-c3ccc(-c4cnc(C5CC5)[nH]4)cc3)cnc12 [Example 184, 6-Chloro-3-[4-(2-cyclopropyl-1H-imidazol-5-yl)phenyl]-N-(2-methylpropyl)imidazo[1,2-b]pyridazin-8-amine] | 101
15 | CNC(=O)c1ccc(-c2cnc3c(NCc4cccs4)cc(Cl)nn23)cc1Cl [Example 186, 2-Chloro-4-{6-chloro-8-[(thiophen-2-ylmethyl)amino]imidazo[1,2-b]pyridazin-3-yl}-N-methylbenzamide] | 338
16 | O=C(NC1CC1)c1ccc(-c2cnc3c(NCc4cccs4)cc(Cl)nn23)cc1Cl [Example 187, 2-Chloro-4-{6-chloro-8-[(thiophen-2-ylmethyl)amino]imidazo[1,2-b]pyridazin-3-yl}-N-cyclopropyl-benzamide] | 49.8
17 | CNC(=O)c1ccc(-c2cnc3c(NCc4cccs4)cc(Cl)nn23)cc1 [Example 190, 4-{6-Chloro-8-[(thiophen-2-yl-methyl)amino]imidazo[1,2-b]pyridazin-3-yl}-N-methylbenzamide] | 660
18 | NC(=O)c1ccc(-c2cnc3c(NCc4cccs4)cc(Cl)nn23)cc1 [Example 191, 4-{6-Chloro-8-[(thiophen-2-yl-methyl)amino]imidazol[1,2-b]pyridazin-3-yl}benzamide] | ≥ 20000
19 | Cn1nccc1-c1cc(NC[C@H](O)[C@H]2COC(C)(C)O2)c2ncc(-c3ccc(C(=O)NC4CC4)cc3)n2n1 [Example 192, N-cyclopropyl-4-[8-({(2S)-2-[(4R)-2,2-dimethyl-1,3-dioxolan-4-yl]-2-hydroxyethyl}amino)-6-(1-methyl-1H-pyrazol-5-yl)imidazo[1,2-b]pyridazin-3-yl]benzamide] | 21.5
20 | Cc1cc(-c2cnc3c(NCC(C)C)cc(-c4ccn[nH]4)nn23)ccc1C(=O)NC1CC1 [Example 195, N-cyclopropyl-2-methyl-4-{8-[(2-methylpropyl)amino]-6-(1H-pyrazol-5-yl)imidazo[1,2-b]pyridazin-3-yl}benzamide] | 3.2
21 | CSc1cc(NCC(C)C)c2ncc(-c3ccc(C(=O)NC4CC4)c(C)c3)n2n1 [Example 196, N-cyclopropyl-2-methyl-4-{8-[(2-methylpropyl)amino]-6-(methylsulfanyl)imidazo[1,2-b]pyridazin-3-yl}benzamide] | 2.7
22 | Cc1cc(-c2cnc3c(NCC(C)C)cc(Sc4ccccc4)nn23)ccc1C(=O)NC1CC1 [Example 197, N-cyclopropyl-2-methyl-4-{8-[(2-methylpropyl)amino]-6-(phenylsulfanyl)imidazo[1,2-b]pyridazin-3-yl}benzamide] | < 1
23 | Cc1cc(-c2cnc3c(NCC(C)C)cc(S(=O)(=O)c4ccccc4)nn23)ccc1C(=O)NC1CC1 [Example 198, N-cyclopropyl-2-methyl-4-{8-[(2-methylpropyl)amino]-6-(phenylsulfonyl)imidazo[1,2-b]pyridazin-3-yl}benzamide] | 2.6
24 | Cc1cc(-c2cnc3c(NCC(C)C)cc(C(=O)NCCO)nn23)ccc1C(=O)NC1CC1 [Example 199, 3-[4-(Cyclopropylcarbamoyl)-3-methylphenyl]-N-(2-hydroxyethyl)-8-[(2-methylpropyl)amino]imidazo[1,2-b]pyridazine-6-carboxamide] | 6.9
25 | CCCSc1cc(NCC(C)C)c2ncc(-c3ccc(C(=O)NC4CC4)c(C)c3)n2n1 [Example 201, N-cyclopropyl-2-methyl-4-{8-[(2-methylpropyl)amino]-6-(propylsulfanyl)imidazo[1,2-b]pyridazin-3-yl}benzamide] | 2.3
26 | Cc1cc(-c2cnc3c(NCC(C)C)cc(-c4ccnn4C)nn23)ccc1C(=O)NC1CC1 [Example 202, N-cyclopropyl-2-methyl-4-{8-[(2-methylpropyl)amino]-6-(1-methyl-1H-pyrazol-5-yl)imidazo[1,2-b]pyridazin-3-yl}benzamide] | 1.5
27 | CSc1cc(NCCC(F)(F)F)c2ncc(-c3ccc(C(=O)NC4CC4)c(C)c3)n2n1 [Example 203, N-cyclopropyl-2-methyl-4-{6-(methylsulfanyl)-8-[(3,3,3-trifluoropropyl)amino]imidazo[1,2-b]pyridazin-3-yl}benzamide] | 1.4
28 | Cc1cc(-c2cnc3c(NCCC(F)(F)F)cc(SCCO)nn23)ccc1C(=O)NC1CC1 [Example 204, N-cyclopropyl-4-{6-[(2-hydroxyethyl)sulfanyl]-8-[(3,3,3-trifluoropropyl)amino]imidazo[1,2-b]pyridazin-3-yl}-2-methylbenzamide] | < 1
29 | Cc1cc(-c2cnc3c(NCCC(F)(F)F)cc(Sc4ccccc4)nn23)ccc1C(=O)NC1CC1 [Example 207, N-cyclopropyl-2-methyl-4-{6-(phenylsulfanyl)-8-[(3,3,3-trifluoropropyl)amino]imidazo[1,2-b]pyridazin-3-yl}benzamide] | < 1
